From article PMC3716696 (PLoS ONE, 2013)
“Also recorded” adds a separate entry of the source. One block for each compound: values may come before it. Non-standard residues stand in square brackets, D forms with d. Residues, ends and D or L forms follow the SMILES beside them. *: point of attachment. Sta = CC(C)C[C@H](N)[C@@H](O)CC(=O)O; Isovaleryl = CC(C)CC(=O)*

Tests used:
[1] = system: SP-degrading / SP1–9-producing activity of spinal cord membrane lysates; test: SP degradation in spinal cord membrane lysates with metalloprotease inhibitors; format: biochemical, mouse; conditions: membrane lysate 1 mg/mL, 30 min pre-incubation 37°C, SP 100 μM, 1 h 37°C, LC-MS, N = 4; for Inhibition of SP degradation (in words): inhibitor 100 μM (TIMP2 4 μM)
Description: All inhibitors were present at 100 μM except for TIMP2, which was present at 4 μM. After the pre-incubation with each inhibitor, either SP or SP1–9 was added to 100 μM final concentration. The reactions proceeded at 37°C for 1 h. Dried samples were dissolved in 0.1% formic acid (aq) and analyzed by LC-MS/MS for SP or SP1–9-degrading activity.
(§1) For LC-MS analysis, an Agilent 6220 LC-ESI-TOF instrument was used in the positive mode. A Bio-Bond C18 (5 μm, 150×2.1 mm) column was used together with a precolumn (C18, 3.5 μm, 2×20 mm). Following injection of 25 μL of 5 μM solutions, the samples were trapped at an isocratic flow rate of 0.1 ml/min for five minutes and eluted at a flow rate of 0.25 mL/min via a mobile phase gradient of 2–100% B in 40 min (Mobile Phase A: 0.1% formic acid in water, Mobile Phase B: 0.1% formic acid in acetonitrile). MS analysis was performed with an electrospray ionization (ESI) source. The capillary voltage was set at 4.0 kV and the fragmentor voltage to 100 V. The drying gas temperature was 350°C, the drying gas flow rate was 10 L/min, and the nebulizer pressure was 45 psi. Data was collected in the centroid mode using a mass range of 100–500 Da. The peptides were analyzed by mass extraction of the +3 charge state.

[2] = in vivo; cited from earlier work
[3] = system: SP-degrading activity of spinal cord membrane lysates; test: SP degradation in spinal cord membrane lysates with general enzyme class inhibitors; format: biochemical, mouse; conditions: membrane lysate 1 mg/mL, 30 min pre-incubation 37°C, SP 100 μM, 1 h 37°C; 1 mM o-phenanthroline, 10 μM pepstatin A, 1 mM PMSF; LC-MS, N = 4
Description: The membrane fraction of spinal cord lysates (1 mg/mL) were pre-incubated at 37°C for 30 minutes separately with each of the following inhibitors (N = 4): 10 μM E-64 (cysteine protease), 1 mM iodoacetamide (cysteine protease), 1 mM o-phenanthroline (metalloprotease), 10 μM pepstatin A (aspartyl protease), 1 mM phenylmethylsulfonyl fluoride (PMSF, serine protease), 1 mM diisopropylfluorophosphate (serine protease), and vehicle (PBS with DMSO for 5% DMSO final concentration in reaction). After the pre-incubation with each inhibitor, SP was added to 100 μM final concentration. The reactions proceeded at 37°C for 1 h. Dried samples were dissolved in 0.1% formic acid (aq) and analyzed by LC-MS/MS for SP-degrading activity (i.e. formation of SP1–7 and SP1–9) using the method outlined in “MALDI-TOF MS and LC-MS/MS analysis of in vitro peptides” section.
as §1

[4] = N-terminal SP fragment formation in spinal cord soluble and membrane lysates; format: in vitro ADME, mouse; conditions: for Degradation product of SP1–9 in spinal cord lysates: SP1–9 100 μM incubated in spinal cord lysate, 37°C, 1 h, LC-MS (Fig. S3)
Description: Three mouse spinal cords were dounce homogenized in 1.1 mL phosphate buffered saline (PBS) on ice and then sonicated for 15 s at 4°C. Tissue debris was separated by centrifuging the sample at 5,000×g for 20 min at 4°C. The soluble fraction was collected after ultracentrifugation of the sample at 55,000×g for 1 h at 4°C. The membrane pellet that remained was washed 3x with 600 μL PBS. The pellet was then suspended in 100 μL PBS by sonication for 5 s at 4°C. The sample was ultracentrifugation at 55,000×g for 1 h at 4°C and the supernatant was separated as a wash membrane sample. The pellet was suspended in 100 μL of 1 mM sodium deoxycholate (Alfa Aesar) by sonication for 5 s at 4°C then stirred for 30 min at 4°C. Ultracentrifugation of the sample at 55,000×g for 1 h at 4°C separated the supernatant as a 1 mM deoxycholate-solubilized membrane fraction. The remaining pellet was washed 3x with 600 μL 1 mM deoxycholate solution. The pellet was subsequently suspended in 4, 12, and 24 mM deoxycholate following the same cycle. The final pellet was suspended in 100 μL PBS. The protein content in the soluble and membrane lysates was quantified by the Bradford assay. […] The reactions were quenched with neat formic acid and speed vac dried. The samples were dissolved in 0.1% formic acid (aq) and analyzed by MALDI-TOF MS for SP-degrading activity (i.e. formation of SP1–7 and SP1–9) using the method outlined in “MALDI-TOF MS and LC-MS/MS analysis of in vitro peptides” section. […]
MALDI-TOF MS was performed with α-cyano-4-hydroxycinnamic acid as the matrix using 2 μL of a 50 μM reconstituted degradation reaction solution (based on initial SP quantities). […]
To determine the candidate proteolytic pathway or pathways for SP degradation in the spinal cord, we separated tissue lysates from mouse spinal cords into membrane and soluble fractions, incubated them with full-length SP for varying lengths of time (15, 60, 240 min) and then analyzed the quenched reactions by MALDI mass spectrometry to identify any SP fragments that had been produced. […]

[5] = system: NEP; test: SP degradation and SP levels in WT and Nep–/– spinal cord; format: in vitro ADME, mouse; conditions: 1 mg/mL WT and Nep–/– spinal cord membrane lysates, LC-MS/MS
Description: The levels of SP in WT and Nep^–/– mice spinal cord tissue (N = 4) were compared by IDMS using Top 6 MS/MS as described previously. The degradation of SP was compared in 1 mg/mL WT and Nep^–/– mice spinal cord membrane lysates using LC-MS/MS analysis following the above method.

[6] = system: ECE-1; conditions: cited from earlier work
[7] = system: Meprin 1A; conditions: cited from earlier work
[8] = cell lysates with synthetic peptide; synthetic peptide introduced into a living tissue (pseudo-in vivo); conditions: cited from earlier work
[9] = system: ACE; conditions: cited from earlier work
[10] = system: Pitrilysin; conditions: cited from earlier work
[11] = system: NEP; conditions: cited from earlier work
[12] = soluble fraction of mouse spinal cord lysates (1 mg/mL); conditions: mouse (C57BL/6), 37°C, up to 240 min
[13] = membrane fraction of spinal cord lysates (1 mg/mL) with class-selective inhibitors; conditions: mouse, 37°C, up to 1 h
[14] = membrane fraction of spinal cord lysates (1 mg/mL) with metalloprotease inhibitors; conditions: mouse, 37°C, up to 1 h
[15] = membrane fraction of mouse spinal cord lysates (1 mg/mL); conditions: mouse (C57BL/6), 37°C, up to 240 min
[16] = mouse spinal cord tissue (endogenous peptides, boiled and extracted); conditions: mouse (C57BL/6)
[17] = system: MMP9; conditions: cited from earlier work
[18] = system: ECE-2; conditions: cited from earlier work
[19] = membrane fraction of spinal cord lysates (1 mg/mL); conditions: mouse (C57BL/6), 37°C, up to 1 h

Compound: CNC(=O)[C@H](Cc1c[nH]c2ccccc12)NC(=O)[C@@H](CC(=O)NO)CC(C)C [GM6001]
Inhibition of SP degradation (in words) [1]: most effective compound at preventing SP degradation; also recorded: least amount of SP degradation | Decrease in SP1–9 production compared to vehicle ([1]; inhibitor 100 μM): greater than 10 fold | Increase in SP levels compared to vehicle ([1]; inhibitor 100 μM): ~2 fold | Inhibition of SP1–9 production (in words) ([1]; inhibitor 100 μM): best inhibitor of SP1–9 production; also recorded: strongly inhibited; also recorded: potently blocks | Bioavailability [2]: bioavailable

Compound: O=S(=O)(F)Cc1ccccc1 [PMSF, phenylmethylsulfonyl fluoride]
Effect on SP1–7 production [3]: regulate SP1-7 production | Inhibition of SP1–9 production [3]: small effect | Inhibition of SP degradation (SP levels vs vehicle) [3]: Modest increases

Compound: CCCCC[C@H](CC(=O)NO)C(=O)N[C@H](C(=O)N1CCC[C@H]1CO)C(C)C [actinonin]
Inhibition of SP degradation (in words) [1]: could inhibit | Inhibition of SP1–9 production (in words) ([1]; inhibitor 100 μM): could inhibit

Compound: CC(C)C[C@H](NP(=O)(O)O[C@@H]1O[C@@H](C)[C@H](O)[C@@H](O)[C@H]1O)C(=O)N[C@@H](Cc1c[nH]c2ccccc12)C(=O)O [phosphoramidon]
Inhibition of SP degradation (in words) [1]: could inhibit | Inhibition of SP1–9 production (in words) ([1]; inhibitor 100 μM): could inhibit | Inhibition of SP1–9 production (in words) ([1]; inhibitor 100 μM, listed as Phosphoramidon): slows SP1–9 production

Compound: H2N-RPKPQQFFGLM-CONH2
cleaved bond [6]: G9-L10 | cleaved bond [7]: G9-L10 | fragment found [8]: SP1–9; also recorded: SP1–8; also recorded: SP1–7; also recorded: SP5–11; also recorded: SP6–11; also recorded: SP7–11; also recorded: SP8–11 | cleaved bond [9]: G9-L10 | cleaved bond [10]: G9-L10 | cleaved bond [11]: G9-L10 | not cleaved [12]: No discernable fragments appeared in the soluble fraction | cleaved bond [13]: G9-L10, major | fragment found [13]: SP1–7 | cleaved bond [14]: G9-L10, major | cleaved bond [15]: G9-L10, major | fragment found [15]: SP1–10; also recorded: SP1–8; also recorded: SP1–7; also recorded: SP3-11 | cleaved bond [16]: G9-L10, major | fragment found [16]: SP1–7, major | cleaved bond [17]: G9-L10 | cleaved bond [18]: G9-L10

Continued, in another order:

Effect on SP1–7 production [3]: regulate SP1-7 production
Compound: c1cnc2c(c1)ccc1cccnc12 [O-phenanthroline]
Inhibition of SP1–9 production [3]: most potent inhibitor of SP1–9 production; also recorded: strongest inhibitor of SP1–9 production | Inhibition of SP degradation (SP levels vs vehicle) [3]: most effective compound at inhibiting SP degradation; also recorded: twice as high as the vehicle control

Degradation product of SP1–9 in spinal cord lysates [4]: SP1–7 was produced | Degradation product of SP1–9 in spinal cord lysates ([4]; listed as SP 1–9): SP1–7 is produced
Compound: N=C(N)NCCC[C@H](N)C(=O)N1CCC[C@H]1C(=O)N[C@@H](CCCCN)C(=O)N1CCC[C@H]1C(=O)N[C@@H](CCC(N)=O)C(=O)N[C@@H](CCC(N)=O)C(=O)N[C@@H](Cc1ccccc1)C(=O)N[C@@H](Cc1ccccc1)C(=O)NCC(=O)O [SP1–9] (H-RPKPQQFFG-OH)

SP fragments formed in soluble fraction of spinal cord lysate ([4]; pH 7.34): No discernable fragments | SP degradation in NEP+/+ vs NEP–/– spinal cord lysates [5]: no significant difference
Compound: CSCC[C@H](NC(=O)[C@H](CC(C)C)NC(=O)CNC(=O)[C@H](Cc1ccccc1)NC(=O)[C@H](Cc1ccccc1)NC(=O)[C@H](CCC(N)=O)NC(=O)[C@H](CCC(N)=O)NC(=O)[C@@H]1CCCN1C(=O)[C@H](CCCCN)NC(=O)[C@@H]1CCCN1C(=O)[C@@H](N)CCCN=C(N)N)C(N)=O [SP, Substance P]

Effect on SP1–7 production [3]: regulate SP1-7 production | Inhibition of SP1–9 production [3]: small effect | Inhibition of SP degradation (SP levels vs vehicle) [3]: Modest increases
Compound: CC(C)CC(=O)N[C@H](C(=O)N[C@H](C(=O)N[C@@H](CC(C)C)[C@@H](O)CC(=O)N[C@@H](C)C(=O)N[C@@H](CC(C)C)[C@@H](O)CC(=O)O)C(C)C)C(C)C [pepstatin A] (Isovaleryl-VV[Sta]A[Sta]-OH)

fragment found [19]: SP1–7
Compound: H-RPKPQQFFG-OH
